Experimental data: patent publication US20250177582A1, “HIGH-AFFINITY LIGANDS OF FIBROBLAST ACTIVATION PROTEIN FOR TARGETED DELIVERY APPLICATIONS” (PHILOCHEM AG, priority 2022, published 2025)
Entries after “also recorded” stand apart in the source; their conditions may differ. Where two headings read alike, the source gives them in different places.

Columns and labels:
[1] = molecular target: human FAP (Homo sapiens (Human), UniProt Q12884); assay: Inhibition assay of FAP (fluorogenic substrate Z-Gly-Pro-AMC); type: biochemical; settings: for FAP binding relative to the parent compound (in words): effect of arginine-based tail / of removing furan as group W; for FAP inhibition potency (in words): SAR comparison
Method: (§1) Inhibition assay of FAP. The compounds were precisely weighed (range between […]) on a micro-scale (HuberLab, Sartorius QUINTIX35-1S) and dissolved in DMSO to prepare stock solutions at 1 mM. Stock solutions were further diluted with FAP activation buffer (50 mM Tris, 100 mM NaCl, 1 mM EDTA, pH=7.4) to a final DMSO concentration of 10% v/v. 10 μL of each inhibitor were serially diluted in a 384 well plate (grenier-bio one, PS, F-bottom, Black, non-binding) with 10 μL of 10% DMSO FAP buffer (1:1 dilution). FAP (human and murine) was diluted to the desired concentration with FAP activation buffer and added to the serial dilution of inhibitor (10 μL for each well). Each protein-inhibitor solution was incubated for 30 minutes at room temperature. Each measurement was performed with an enzyme concentration (FAP) lower than the expected IC50. A 60 μM solution of substrate (Z-Gly-Pro-AMC) in FAP activation buffer (<1% DMSO) was added to the plate (10 μL for each well). The reaction was incubated from 1 minute to 48 hours (see FIG. 2) at room temperature (22° C.-25° C.). The emission was read at 465 nm (excitation wavelength 360 nm) for 40 μs by Tecan Spark (s.n. 1808004082). The following controls were added to each row: positive control (no inhibitor control, 10 μL of 10% DMSO FAP buffer+10 μL of FAP solution+10 μL of substrate solution), negative control (no protein control, 10 μL of 10% DMSO FAP buffer+10 μL of FAP activation buffer+10 μL of substrate solution).
(§2) Normalization of values: The “% of FAP activity” can be calculated with the following formula:
The concentration of substrate (Z-Gly-Pro-AMC) was kept constant=20 μM. Dashed lines corresponds to sets of data with unstable fitting. […] Error bars display SEM.
(§3) FIG. 3: Inhibition assay performed with compounds 1, 2, 3, 4, 5, 6, 8 against a) 66 pM human FAP and b) 66 pM murine FAP. The concentration of substrate (Z-Gly-Pro-AMC) was kept constant=20 μM. The assay was incubated for 48 hours at 22.6° C. Error bars display SEM.
(§4) FIG. 4: a) Inhibition assay performed with compounds 8, 9 and 10 against 66 pM human FAP. The assay was incubated for 17 hours at 25° C. b) Inhibition assay performed with compound 9 against 66 pM murine FAP. The assay was incubated for 17 hours at 25° C. In both assays the concentration of substrate (Z-Gly-Pro-AMC) was kept constant=20 μM. Error bars display SEM.
FIG. 19. A: Chemical structures and corresponding IC50(hFAP) values of compounds according to the present invention. B: Chemical structures and corresponding IC50 values of compounds where the propargyl moiety at position AA^2 was replaced by different groups (Me, iPr, Bn) using both R and S stereoisomers. The sites of modification have been highlighted with arrows. Each measurement was performed with a FAP concentration lower than the expected IC50. Depending on FAP concentration, the fluorescence was measured between 10 minutes and 48 h (at room temperature) after the addition of the fluorogenic substrate (Z-Gly-Pro-AMC). IC50 values and standard errors were calculated using “[Inhibitor] vs. response—Variable slope (four parameters)” fitting (Graphpad Prism). […] By introducing the quinoline-based moiety, a single-digit nanomolar inhibitor was obtained. […] The replacement of propargylglycine with S-phenylalanine improved potency of the lead compound of additional ˜2-folds (compound 14).

[2] = molecular target: murine FAP (Mus musculus (Mouse), UniProt P97321); assay: as above; type: biochemical; settings: substrate Z-Gly-Pro-AMC 20 μM; 66 pM murine FAP; room temperature
Method: as §1, §2, §3, §4

[3] = test system: SK-RC-52.hFAP cells; assay: Confocal microscopy on living cells; type: cell-based; settings: 150 nM; imaged 1 h after incubation
Method: SK—RC-52.hFAP and SK—RC-52.wt cells were seeded into g-Slide 8 Well high Glass Bottom at a density of 5×10^4 cells per well in 300 μL of RPMI medium supplemented with 10% fetal calf serum (FCS), AA, and Hepes (10 mM) and allowed to grow overnight under standard culture conditions. Hoechst 33342 nuclear dye was used to stain nuclear structures. The culture medium was replaced with fresh medium containing either compound 36 or 29 (150 nM). Randomly selected colonies were imaged 1 h after incubation on the confocal microscope Zeiss LSM 880 airyscan (Zeiss). Fiji was used for the data processing and visualization.

[4] = test system: FAP negative SKRC-52.wt; assay: Flow cytometry (FACS) binding; type: cell-based; settings: 100 nM; 1 h on ice
Method: (§5) Cells were detached from culture plates using Accutase cell detachment solution, counted and suspended to a final concentration of 1.25×10≢cell/100 μL in a solution of FACS buffer (1% bovine serum albumin, 2 mM EDTA, in 500 mL PBS pH 7.4). Aliquots of 2.5×10≡cells (200 μL) were spun down and resuspended in solutions of compound 36 and compound 29 (100 μL; 100 nM) in FACS buffer and incubated on ice in the dark for 1 h. Cells were washed once with 200 μl FACS (1% v/v)/PBS (pH=7.4), spun down, resuspended in a solution of FACS buffer and analyzed via a BD LSRFortessa™ Cell Analyzer (Biosciences). FlowJo Version 8.7 (Treestar) was used for the data analysis and visualization.

[5] = test system: FAP positive SKRC-52.hFAP; assay: Flow cytometry (FACS) binding; type: cell-based; settings: 100 nM; 1 h on ice
Method: as §5

[6] = substrate Z-Gly-Pro-AMC 20 μM, FAP concentration lower than expected IC50 (66 pM in FIG. 3, 4), room temperature, read-out: IC50 vs human FAP

Sequence of murine FAP (P97321 whole entry): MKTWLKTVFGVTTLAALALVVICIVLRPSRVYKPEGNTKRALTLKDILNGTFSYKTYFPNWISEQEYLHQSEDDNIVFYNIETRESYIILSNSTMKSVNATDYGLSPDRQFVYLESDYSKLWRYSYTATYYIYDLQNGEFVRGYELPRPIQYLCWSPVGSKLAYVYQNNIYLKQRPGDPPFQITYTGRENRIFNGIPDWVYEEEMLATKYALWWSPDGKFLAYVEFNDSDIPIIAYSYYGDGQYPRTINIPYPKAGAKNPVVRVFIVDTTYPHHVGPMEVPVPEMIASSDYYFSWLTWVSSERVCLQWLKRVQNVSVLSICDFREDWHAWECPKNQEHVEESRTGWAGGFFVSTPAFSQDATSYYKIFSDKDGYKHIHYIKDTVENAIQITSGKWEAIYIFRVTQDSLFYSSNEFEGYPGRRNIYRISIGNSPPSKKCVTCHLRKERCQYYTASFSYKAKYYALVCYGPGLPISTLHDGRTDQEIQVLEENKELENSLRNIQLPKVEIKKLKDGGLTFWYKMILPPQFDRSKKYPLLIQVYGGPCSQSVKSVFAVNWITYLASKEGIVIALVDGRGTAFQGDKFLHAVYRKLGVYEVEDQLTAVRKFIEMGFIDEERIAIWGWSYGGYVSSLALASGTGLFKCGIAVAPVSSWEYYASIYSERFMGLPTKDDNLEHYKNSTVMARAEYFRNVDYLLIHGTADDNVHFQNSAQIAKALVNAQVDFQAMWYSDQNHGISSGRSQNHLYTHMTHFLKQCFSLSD
Sequence of human FAP (Q12884 whole entry): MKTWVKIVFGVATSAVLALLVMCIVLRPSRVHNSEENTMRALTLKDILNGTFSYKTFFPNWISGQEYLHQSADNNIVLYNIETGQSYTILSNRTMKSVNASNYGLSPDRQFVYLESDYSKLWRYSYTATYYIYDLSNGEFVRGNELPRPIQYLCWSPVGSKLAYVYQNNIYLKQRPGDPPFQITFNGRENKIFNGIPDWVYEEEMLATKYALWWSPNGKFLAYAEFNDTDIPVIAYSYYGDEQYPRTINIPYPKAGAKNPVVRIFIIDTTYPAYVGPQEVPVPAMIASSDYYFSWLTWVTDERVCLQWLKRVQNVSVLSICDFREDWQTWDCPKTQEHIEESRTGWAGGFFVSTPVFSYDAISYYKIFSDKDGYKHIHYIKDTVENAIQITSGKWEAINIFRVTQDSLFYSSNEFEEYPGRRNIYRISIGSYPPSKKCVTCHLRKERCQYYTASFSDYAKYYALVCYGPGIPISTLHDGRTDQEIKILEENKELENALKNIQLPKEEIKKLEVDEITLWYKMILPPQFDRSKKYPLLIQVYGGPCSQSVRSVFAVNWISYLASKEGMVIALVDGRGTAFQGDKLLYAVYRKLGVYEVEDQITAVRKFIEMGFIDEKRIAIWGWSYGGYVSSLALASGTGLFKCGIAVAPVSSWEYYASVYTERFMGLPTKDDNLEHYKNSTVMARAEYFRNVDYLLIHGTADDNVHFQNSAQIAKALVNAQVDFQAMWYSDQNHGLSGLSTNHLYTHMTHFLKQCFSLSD

N#C[C@@H]1CC(F)(F)CN1C(=O)CCC(=O)O [Compound 1]
IC50 [1, 6]: 249000 nM
IC50 [2]: 200000 nM

C#CC[C@@H](NC(=O)[C@H](CCCNC(=N)N(C)C)NC(=O)c1coc(CNC(=O)CCC(=O)N2CC(F)(F)C[C@H]2C#N)c1)C(=O)N[C@@H](CCCCN)C(=O)O [Compound 3]
IC50 [1, 6]: 60 nM
IC50 [2]: 38.4 nM

CN(C)C(=N)NCCC[C@H](NC(=O)c1coc(CNC(=O)CCC(=O)N2CC(F)(F)C[C@H]2C#N)c1)C(=O)N[C@@H](CCCCN)C(=O)O [Compound 4]
FAP binding relative to the parent compound (in words) [1]: significant improvement
IC50 [1, 6]: 178 nM
IC50 [2]: 154 nM

C#CC[C@H](NC(=O)c1coc(CNC(=O)CCC(=O)N2CC(F)(F)C[C@H]2C#N)c1)C(=O)N[C@@H](CCCCN)C(=O)O [Compound 5]
IC50 [2]: 3900 nM

C#CC[C@H](NC(=O)CCC(=O)N1CC(F)(F)C[C@H]1C#N)C(=O)N[C@@H](CCCCN)C(=O)O [Compound 6]
FAP binding relative to the parent compound (in words) [1]: worsening
IC50 [1, 6]: 17200 nM
IC50 [2]: 22700 nM

N#C[C@@H]1CC(F)(F)CN1C(=O)CNC(=O)c1ccnc2c(NC(=O)CCC(=O)O)cccc12 [Compound 8, (S)-4-((4-((2-(2-cyano-4,4-difluoropyrrolidin-1-yl)-2-oxoethyl)carbamoyl)quinolin-8-yl)amino)-4-oxobutanoic acid, reference compound]
IC50 ([1]; 22.6° C., [hFAP] 2.5 nM to 39 pM, substrate 20 μM, read-out: IC50 values from fitted curves, inhibition assay performed overtime): 6 to 21 nM
IC50 [1, 6]: 10.9 nM
IC50 [2]: 16.1 nM

C#CC[C@H](NC(=O)[C@H](CCCNC(=N)N(C)C)NC(=O)CCC(=O)Nc1cccc2c(C(=O)NCC(=O)N3CC(F)(F)C[C@H]3C#N)ccnc12)C(=O)N[C@@H](CCCCN)C(=O)O [Compound 9]
FAP inhibition potency (in words) [1]: sub-nanomolar range; also recorded: increased strongly
IC50 [1, 6]: 0.439 nM
IC50 [2]: 0.115 nM

C#CC[C@H](NC(=O)CCC(=O)Nc1cccc2c(C(=O)NCC(=O)N3CC(F)(F)C[C@H]3C#N)ccnc12)C(=O)N[C@@H](CCCCN)C(=O)O [Compound 10]
IC50 [1, 6]: 4.38 nM

CN(C)C(=N)NCCC[C@H](NC(=O)CCC(=O)Nc1cccc2c(C(=O)NCC(=O)N3CC(F)(F)C[C@H]3C#N)ccnc12)C(=O)N[C@@H](Cc1ccccc1)C(=O)N[C@@H](CCCCN)C(=O)O [Compound 11]
FAP inhibition potency (in words) [1]: picomolar range
IC50 [1, 6]: 0.156 nM

N#C[C@@H]1CC(F)(F)CN1C(=O)CNC(=O)c1ccnc2c(NC(=O)CCC(=O)N[C@@H](CCCNC(=N)N)C(=O)N[C@@H](Cc3ccccc3)C(=O)N[C@@H](CCCCN)C(=O)O)cccc12 [Compound 14]
improvement of potency over the lead compound on replacing propargylglycine with S-phenylalanine ([1]; L-arginine building block (R=H)): ~2 folds
IC50 [1, 6]: 0.353 nM

N#C[C@@H]1CC(F)(F)CN1C(=O)CNC(=O)c1ccnc2c(NC(=O)CCC(=O)N[C@@H](CCCNC(=N)N)C(=O)N[C@H](Cc3ccccc3)C(=O)N[C@@H](CCCCN)C(=O)O)cccc12 [Compound 15]
IC50 [1, 6]: 604 nM

CC(C)[C@H](NC(=O)[C@H](CCCNC(=N)N)NC(=O)CCC(=O)Nc1cccc2c(C(=O)NCC(=O)N3CC(F)(F)C[C@H]3C#N)ccnc12)C(=O)N[C@@H](CCCCN)C(=O)O [Compound 16]
IC50 [1, 6]: 1.66 nM

CC(C)[C@@H](NC(=O)[C@H](CCCNC(=N)N)NC(=O)CCC(=O)Nc1cccc2c(C(=O)NCC(=O)N3CC(F)(F)C[C@H]3C#N)ccnc12)C(=O)N[C@@H](CCCCN)C(=O)O [Compound 17]
IC50 [1, 6]: 0.697 nM

C[C@H](NC(=O)[C@H](CCCNC(=N)N)NC(=O)CCC(=O)Nc1cccc2c(C(=O)NCC(=O)N3CC(F)(F)C[C@H]3C#N)ccnc12)C(=O)N[C@@H](CCCCN)C(=O)O [Compound 18]
IC50 [1, 6]: 1.54 nM

C[C@@H](NC(=O)[C@H](CCCNC(=N)N)NC(=O)CCC(=O)Nc1cccc2c(C(=O)NCC(=O)N3CC(F)(F)C[C@H]3C#N)ccnc12)C(=O)N[C@@H](CCCCN)C(=O)O [Compound 19]
IC50 [1, 6]: 0.991 nM

CN(C)C(=N)NCCC[C@H](NC(=O)CCC(=O)Nc1cccc2c(C(=O)NCC(=O)N3CC(F)(F)C[C@H]3C#N)ccnc12)C(=O)N[C@@H](Cc1ccccc1)C(=O)NCCNC(=O)OC(C)(C)C [Compound 26]
IC50 [1, 6]: 0.0748 nM

CN(C)C(=N)NCCC[C@H](NC(=O)CCC(=O)Nc1cccc2c(C(=O)NCC(=O)N3CC(F)(F)C[C@H]3C#N)ccnc12)C(=O)N[C@@H](Cc1ccccc1)C(=O)NCCN [Compound 27]
IC50 [1, 6]: 1.02 nM

CN(C)C(=N)NCCC[C@H](NC(=O)CCC(=O)Nc1cccc2c(C(=O)NCC(=O)N3CC(F)(F)C[C@H]3C#N)ccnc12)C(=O)N[C@@H](Cc1ccccc1)C(=O)NCCNC(=S)Nc1ccc2c(c1)C(=O)OC21c2ccc(O)cc2Oc2cc(O)ccc21 [Compound 29]
internalization, confocal microscopy [3]: Internalization was not observed
staining pattern, confocal microscopy [3]: Membrane-specific staining
binding on wild-type (FAP-negative) cells, flow cytometry [4]: no binding
staining of FAP-positive cells, flow cytometry [5]: stained

C#CC[C@H](NC(=O)[C@H](CCCNC(=N)N(C)C)NC(=O)c1coc(CNC(=O)CCC(=O)N2CC(F)(F)C[C@H]2C#N)c1)C(=O)N[C@@H](CCCCNC(=S)Nc1ccc2c(c1)C(=O)OC21c2ccc(O)cc2Oc2cc(O)ccc21)C(=O)O [Compound 36]
internalization, confocal microscopy [3]: Internalization was not observed
staining pattern, confocal microscopy [3]: Membrane-specific staining
binding on wild-type (FAP-negative) cells, flow cytometry [4]: no binding
staining of FAP-positive cells, flow cytometry [5]: stained

N#C[C@@H]1CC(F)(F)CN1C(=O)CN [reference compound]
IC50 [1, 6]: 24100 nM
